# Measured values as given in patent US11052082B2 (priority 2012, dated 2021).
# “Also recorded” adds a separate entry of the source. Where a name gives a salt, the structure may show the parent alone. Peptide text beside a SMILES is read from it. * marks the point of attachment. Cbz = O=C(OCc1ccccc1)*; CH2F = FC*
# Assays:
# BCP-ALL-cell line Tanoue [1] = assay: Doxorubicin uptake and efflux, Tanoue; assay type: cell-based, human
# [2] = system: caspases, PARP, XIAP, Bcl-xL in glioblastoma cells A172; assay: Western blot of apoptosis effectors in A172; assay type: cell-based
# [3] = system: glioblastoma cell line A172; assay: Doxorubicin uptake and efflux, A172; assay type: cell-based; conditions: 0.3 μg/mL doxorubicin
# [4] = system: human T cell leukemia, human acute myeloid leukemia, human B cell precursor leukemia, human B cell leukemia; assay: Apoptosis in different leukemia cells, D,L-methadone plus cisplatin; assay type: cell-based
# pre-B-ALL-SCID = assay: Apoptosis induction in xenograft-derived BCP-ALL cells; assay type: cell-based, human; conditions: therapeutic concentrations of D,L-methadone alone; moderate opioid-receptor level
# [5] = Tolerability (body weight) in U87MG xenograft mice; conditions: D,L-methadone 60 to 240 mg/kg/d
# [6] = system: BCP-ALL-cell lines (Tanoue, Reh, Nalm6); assay: Apoptosis induction in BCP-ALL-cell lines; assay type: cell-based, human; conditions: D,L-methadone alone; 120 h
# [7] = system: leukemia cancer cells (Nalm-6), pancreatic cancer cells (Colo357), ovarian cancer cells (A2780); assay: Sensitization for etoposide or cisplatin treatment; assay type: cell-based; conditions: 0.03 μg/mL etoposide or 0.3 μg/mL cisplatin; D,L-methadone 10, 3, 1 μg/mL; 120 to 144 h
# [8] = system: apoptosis pathways in glioblastoma-initiating stem cells; assay: Western blot of apoptosis pathways in glioblastoma-initiating stem cells; assay type: cell-based; conditions: 3 μg/mL D,L-methadone + 0.1 μg/mL doxorubicin; 144 h
# [9] = Tolerability (body weight, maximum tolerated dose) in ALL-SCID6 xenograft mice; conditions: same regimen as tumour growth study
# [10] = system: caspase-8, -9, -3, PARP, XIAP, Bcl-xL in JIMT-1 cells; assay: Western blot of apoptosis effectors in JIMT-1; assay type: cell-based, human; conditions: D,L-methadone 10, 3, 1 μg/mL + 0.015 μg/mL doxorubicin; 96 h
# U87MG glioblastoma = U87MG glioblastoma xenograft tumour growth; assay type: in vivo, nude-mice; conditions: days 19 to 33
# BCP-ALL-cell line Tanoue [11] = assay type: cell-based, human; conditions: for effect on apoptosis rates of combination treatment with D,L-methadone and doxorubicin: 3 μg/mL D,L-methadone + 0.06 μg/mL doxorubicin, 60 μg/mL naloxone, 200 μM IBMX or PTX
# glioblastoma cells A172 = assay: Apoptosis / cell death in glioblastoma cells A172; assay type: cell-based; conditions: for effect on apoptosis induced by combination treatment with D,L-methadone and doxorubicin: 100 μg/mL naloxone or 25 μM IBMX, 3 μg/mL D,L-methadone, 0.3 μg/mL doxorubicin, 120 h
# [12] = system: Pancreatic cancer cells Colo 357; assay: Cell death in pancreatic cancer cells; assay type: cell-based
# [13] = system: opioid receptor on promyelocytic leukemia cell line HL60; assay: Opioid receptor expression, HL60; assay type: cell-based, human; conditions: 0.3 μg/mL cisplatin; 24 h
# Method: (§1) Cells were washed in PBS supplemented with 1% FCS, centrifuged and resuspended in PBS/1% FCS containing naloxone-fluoresceine (0.05 mM, Invitrogen) (Hedin et al., 1997). After 30 min of incubation at RT, the cells were washed twice with PBS/1% FCS, centrifuged and resuspended in icecold PBS/1% FCS. Flowcytometry analysis was performed using FACSCalibur (BD, Heidelberg, Germany).
# After staining of cisplatin-treated (+Cisplatin) and untreated cells (−Cisplatin) with naloxone-fluoresceine relative fluorescence intensities were determined flowcytometrically. 2.1-fold increase in opioid receptor expression is shown after subtracting the cells autofluorescence.
# [14] = system: A2780 ovarian cancer cells; assay: Cell death in A2780 ovarian cancer cells; assay type: cell-based; conditions: 2 μg/mL cisplatin alone; 144 h
# [15] = system: opioid-receptors on BCP-ALL-cell line Tanoue; assay: Flow cytometric cell surface opioid-receptor expression, Tanoue; assay type: cell-based, human; conditions: 0.06 μg/mL doxorubicin; 96 h
# Method: as §1
# (A) Doxorubicin enhances opioid receptor expression on the cells' surface. The BCP-ALL-cell line Tanoue was treated for 96 h with 0.06 μg/mL doxorubicin. After staining of doxorubicin-treated (+Doxo) and untreated cells (−Doxo) with naloxone-fluoresceine relative fluorescence intensities were determined flowcytometrically. X-fold increase in opioid receptor expression is shown after subtracting the cells' autofluorescence (−Doxo) and doxorubicin fluorescence (+Doxo).
# ALL-SCID6 xenograft = assay: Patient-derived ALL-xenograft tumour growth; assay type: in vivo, NOD/SCID/IL2ry null (NSG) mice; conditions: D,L-methadone orally day 1-76, 20 up to 120 mg/kg/day; doxorubicin 3 mg/kg i.v. day 46, 53, 60, 76
# [16] = Serum concentrations in ALL-SCID6 xenograft mice; conditions: male, NOD/SCID/IL2ry null (NSG), mouse, in vivo, 3 mg/kg
# [17] = system: opioid receptor on glioblastoma cell line A172; assay: Opioid receptor expression, A172; assay type: cell-based; conditions: 0.1 μg/mL doxorubicin; 106 h
# Method: as §1
# (A) The glioblastoma cell line A172 was treated for 106 h with 0.1 μg/mL doxorubicin. After staining of doxorubicin-treated (doxorubicin) and untreated cells with naloxone-fluorescein (naloxone) relative fluorescence intensities were determined flowcytometrically. (B) Tabular summary of untreated and doxorubicin control cells, naloxone treated cells, whereas D(naloxone-control) represents the median fluorescence intensities after subtracting the cells' autofluorescence (control).
# [18] = system: Trastuzumab resistant breast cancer cells JIMT-1; assay: Apoptosis / cell death in JIMT-1 breast cancer cells; assay type: cell-based, human
# glioblastoma cells = assay: Apoptosis / cell death in glioblastoma cells (opioid comparison, naloxone); assay type: cell-based; conditions: 60 μg/mL naloxone, 3 μg/mL D,L-methadone, 0.1 μg/mL doxorubicin; 120 h and 144 h
# [19] = system: caspase-2, caspase-9, caspase-3, PARP, XIAP, Bcl-xL in BCP-ALL-cell line Tanoue; assay: Western blot analysis of apoptosis effectors in Tanoue; assay type: cell-based, human; conditions: 60 μg/mL naloxone; 96 h
compound,measurement,setting,value
"CCC(=O)C(CC(C)N(C)C)(c1ccccc1)c1ccccc1 (racemic) [D,L-methadone, D,L-methadone hydrochloride]",doxorubicin efflux,BCP-ALL-cell line Tanoue [1]; 8 h and 24 h after removing doxorubicin,reduced the doxorubicin efflux strongly
same,doxorubicin uptake,"BCP-ALL-cell line Tanoue [1]; co-incubation with 0.3 μg/mL doxorubicin, 24 h (0 h)",enhanced doxorubicin concentration in the cells
same,caspases activation,"[2]; D,L-methadone 3, 1 μg/mL + 0.1 μg/mL doxorubicin, 144 h",restored deficient caspases activation by doxorubicin
same,doxorubicin efflux,[3],inhibit the efflux
same,doxorubicin uptake,"[3]; 10 μg/mL D,L-methadone",enhance the uptake
same,cell death induction,"[4]; D,L-methadone alone (−CDDP)",only be killed slightly
same,cell death induction,pre-B-ALL-SCID,only be slightly killed
same,body weight loss,[5],9%
same,cell death induction,[6],only be killed slightly
same,sensitization for etoposide or cisplatin treatment,[7],sensitizes
same,activation of apoptosis pathways,[8],reversed deficient activation of apoptosis pathways by doxorubicin
same,body weight changes,[9],−8%
same,caspases activation,[10],restored deficient caspases activation by doxorubicin
same,optimum T/C value,"U87MG glioblastoma; D,L-methadone orally daily, 60 to 120 to 240 mg/kg/d bid",49%
same,tumour size vs vehicle,U87MG glioblastoma,significantly reduced tumour size
"CC(C)Cn1c(=O)n(C)c(=O)c2[nH]cnc21 [IBMX, 3-Isobutyl-1-methylxanthine]",effect on doxorubicin-induced apoptosis,"BCP-ALL-cell line Tanoue [11]; 200 μM IBMX, 0.06 μg/mL doxorubicin, 96 h",decreased doxorubicin-induced apoptosis
same,"effect on apoptosis rates of combination treatment with D,L-methadone and doxorubicin",BCP-ALL-cell line Tanoue [11]; 96 h,strongly reduced the apoptosis rates
same,"effect on apoptosis induced by combination treatment with D,L-methadone and doxorubicin",glioblastoma cells A172; 144 h,strongly reduced apoptosis induction
N.N.[Cl][Pt][Cl] [cisplatin],cell death,"[12]; 10 μg/mL alone, 120 h",60%
same,cell death,"[12]; 10 μg/mL cisplatin alone, 144 h",70%
same,increase in opioid receptor expression,[13],2.1 fold
same,cell death,[14],90%
COc1cccc2c1C(=O)c1c(O)c3c(c(O)c1C2=O)C[C@@](O)(C(=O)CO)C[C@@H]3O[C@H]1C[C@H](N)[C@H](O)[C@H](C)O1 [doxorubicin],opioid-receptor expression,[15],strongly increased opioid-receptor expression
same,tumour growth inhibition,ALL-SCID6 xenograft,significant inhibition of tumour growth
same,serum concentrations of doxorubicin,[16],156 to 198 ng/mL
same,increase in opioid receptor expression,[17],6 fold
same,cell death,"[18]; 0.1 μg/mL doxorubicin alone, 120 h",70%
same,body weight changes,[9],−4%
same,cell death,"glioblastoma cells A172; 1 μg/mL doxorubicin alone, 144 h",80%
C=CCN1CC[C@]23c4c5ccc(O)c4O[C@H]2C(=O)CC[C@@]3(O)[C@H]1C5 [naloxone],"effect on apoptosis rates of combination treatment with D,L-methadone and doxorubicin",glioblastoma cells,strongly reduced the apoptosis rates
same,"effect on activation of caspase-9, caspase-3 and cleavage of PARP by combination treatment","[2]; 100 μg/mL naloxone, 120 h",strongly reduced
same,"effect on caspase activation and PARP cleavage by D,L-methadone in addition to doxorubicin",[19],"drastically reduced the activation of caspase-9, caspase-2 and caspase-3"
same,"effect on apoptosis induced by combination treatment with D,L-methadone and doxorubicin","[18]; 100 μg/mL naloxone, 10 μg/mL D,L-methadone, 0.01 μg/mL doxorubicin, 96 h",strongly reduced apoptosis; also recorded: strongly inhibits apoptosis induction
same,"effect on apoptosis induced by combination treatment with D,L-methadone and doxorubicin",glioblastoma cells A172; 144 h,strongly reduced apoptosis
"CC(C)[C@H](NC(=O)OCc1ccccc1)C(=O)N[C@@H](C)C(=O)N[C@@H](CC(=O)O)C(=O)CF [zVAD.fmk, benzoylcarbonyl-Val-Ala-Asp-fluoromethylketone] (Cbz-Val-Ala-Asp-CH2F)","effect on cell death after combination treatment with D,L-methadone and doxorubicin","BCP-ALL-cell line Tanoue [11]; 50 μM zVAD.fmk pre-incubation, 0.06 μg/mL doxorubicin, 120 h",strongly decreased cell death
same,"effect on cell death after combination treatment with D,L-methadone and cisplatin",[4]; zVAD.fmk pre-incubation,strongly decreased cell death
same,"effect on apoptosis induced by D,L-methadone in addition to cisplatin","[12]; 50 μmol/L zVAD.fmk, cisplatin 0.7 or 0.5 μg/mL",almost completely inhibited apoptosis
same,"effect on apoptosis induced by D,L-methadone in addition to oxaliplatin","[12]; 50 μmol/L zVAD.fmk, oxaliplatin 3 or 2 μg/mL",almost completely inhibited apoptosis
same,"effect on apoptosis induced by cotreatment of D,L-methadone and doxorubicin","[18]; 50 μmol/L zVAD.fmk, 0.015 μg/mL doxorubicin, 96 h, 120 h",blocks apoptosis
same,"effect on apoptosis induced by cotreatment of D,L-methadone and doxorubicin","glioblastoma cells A172; 50 μmol/L zVAD.fmk, 0.1 μg/mL doxorubicin, 120 h and 144 h",blocks apoptosis
pertussis toxin [PTX],"effect on apoptosis rates of combination treatment with D,L-methadone and doxorubicin",BCP-ALL-cell line Tanoue [11]; 96 h,strongly reduced the apoptosis rates
